Measured values published in US9833497B2, “Human originated EGF domain proteins and use of the same” (CHENGDU SOURCEBIO LIMITED-LIABILITY COMPANY, priority 2013, dated 2017).

What was measured:
Type in all cases: cell-based
Proteus vulgaris = test: MIC against Gram-negative bacteria: Proteus vulgaris; settings: for MIC P. vulgaris: two-fold serial dilution
Summary of the method: (§1)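 Two-fold serial dilutions of each purified human EGF domain protein, three replicate wells per level, were combined with bacteria at a final 5×10^5 CFU/mL in LB. Cultures were shaken at 175 rpm, 37° C. The MIC was taken as the minimum concentration preventing growth.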

Proteus mirabilis = test: MIC against Gram-negative bacteria: Proteus mirabilis; settings: for MIC P. mirabilis: two-fold serial dilution
Summary of the method: as §1

Citrobacter diversus = test: MIC against Gram-negative bacteria: Citrobacter diversus; settings: for MIC C. diversus: two-fold serial dilution
Summary of the method: as §1

Serratia marcescens = test: MIC against Gram-negative bacteria: Serratia marcescens; settings: for MIC S. marcescens: two-fold serial dilution
Summary of the method: as §1

Klebsiella pneumonia = test: MIC against Gram-negative bacteria: Klebsiella pneumonia; settings: for MIC K. pneumonia: two-fold serial dilution
Summary of the method: as §1

Enterobacter cloacae = test: MIC against Gram-negative bacteria: Enterobacter cloacae; settings: for MIC E. cloacae: two-fold serial dilution
Summary of the method: as §1

Aeromonas hydrophila = test: MIC against Gram-negative bacteria: Aeromonas hydrophila; settings: for MIC A. hydrophila: two-fold serial dilution
Summary of the method: as §1

E. coli DH5α = test: Antibacterial activity: MIC and growth curve against E. coli DH5α in 96-well plate; settings: minimal inhibitory concentration against E. coli DH5α; 96-well plate, 5×10^5 CFU/mL, 37° C., judged after 8 h
Summary of the method: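 Log-phase DH5α (OD600 about 0.5, 37° C, 185 rpm in LB) was pelleted, resuspended in fresh LB and seeded at 5×10^5 CFU/mL with recombinant protein at 50, 25 and 12.5 μg/mL (two-fold series), in triplicate. Plates were shaken at 175 rpm, 37° C, and OD600 was read every 30 min. MIC was the lowest concentration with no growth.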

E. coli BL21 = test: MIC against Gram-negative bacteria: E. coli BL21; settings: for MIC E. coli BL21: two-fold serial dilution
Summary of the method: as §1

Pseudomonas aeruginosa = test: MIC against Gram-negative bacteria: Pseudomonas aeruginosa; settings: for MIC P. aeruginosa: two-fold serial dilution
Summary of the method: as §1

Moraxella catarrhalis = test: MIC against Gram-negative bacteria: Moraxella catarrhalis; settings: for MIC M. catarrhalis: two-fold serial dilution
Summary of the method: as §1

[1] = 10 h cultivation at 37° C., 5×10^5 CFU/mL
[2] = 96-well plate, 5×10^5 CFU/mL, 37° C., 10 h

PRT950 (CESGCASSPCQHGGSCHPQRQPPYYSCQCAPPFSGSRCE; listed as Homo sapiens)
50 µg/mL: MIC (Proteus mirabilis; P. mirabilis, 10 h cultivation at 37° C.) | MIC (Aeromonas hydrophila; A. hydrophila, 10 h cultivation at 37° C.) | MIC (E. coli DH5α) | MIC (Pseudomonas aeruginosa; P. aeruginosa, 10 h cultivation at 37° C.)
25 µg/mL: MIC (Proteus vulgaris; P. vulgaris, 10 h cultivation at 37° C.) | MIC (Citrobacter diversus; C. diversus, 10 h cultivation at 37° C.) | MIC (Klebsiella pneumonia; K. pneumonia, 10 h cultivation at 37° C.)
12.5 µg/mL: MIC (Serratia marcescens; S. marcescens, 10 h cultivation at 37° C.) | MIC (Enterobacter cloacae; E. cloacae, 10 h cultivation at 37° C.) | MIC (E. coli BL21; E. coli BL21, 10 h cultivation at 37° C.) | MIC (Moraxella catarrhalis; M. catarrhalis, 10 h cultivation at 37° C.)

PRT1059 (SDSECPLSHDGYCLHDGVCMYIEALDKYACNCVVGYIGERCQ; listed as Homo sapiens)
25 µg/mL: MIC P. vulgaris (Proteus vulgaris; [1]) | MIC E. cloacae (Enterobacter cloacae; [1]) | MIC A. hydrophila (Aeromonas hydrophila; [1])
50 µg/mL: MIC C. diversus (Citrobacter diversus; [1]) | MIC (E. coli DH5α) | MIC P. aeruginosa (Pseudomonas aeruginosa; [1])
12.5 µg/mL: MIC P. mirabilis (Proteus mirabilis; [1]) | MIC S. marcescens (Serratia marcescens; [1]) | MIC K. pneumonia (Klebsiella pneumonia; [1]) | MIC E. coli BL21 (E. coli BL21; [1]) | MIC M. catarrhalis (Moraxella catarrhalis; [1])

PRT1406 (EADCIDPGCSNHGVCIHGECHCSPGWGGSNCE; listed as Homo sapiens)
25 µg/mL: MIC against E. cloacae (Enterobacter cloacae; Enterobacter cloacae, 5×10^5 CFU/mL, 10 h cultivation at 37° C.) | MIC (E. coli DH5α) | MIC against P. aeruginosa (Pseudomonas aeruginosa; Pseudomonas aeruginosa, 5×10^5 CFU/mL, 10 h cultivation at 37° C.)
50 µg/mL: MIC against P. vulgaris (Proteus vulgaris; Proteus vulgaris, 5×10^5 CFU/mL, 10 h cultivation at 37° C.) | MIC against S. marcescens (Serratia marcescens; Serratia marcescens, 5×10^5 CFU/mL, 10 h cultivation at 37° C.) | MIC against A. hydrophila (Aeromonas hydrophila; Aeromonas hydrophila, 5×10^5 CFU/mL, 10 h cultivation at 37° C.) | MIC against E. coli BL21 (E. coli BL21; E. coli BL21, 5×10^5 CFU/mL, 10 h cultivation at 37° C.) | MIC against M. catarrhalis (Moraxella catarrhalis; Moraxella catarrhalis, 5×10^5 CFU/mL, 10 h cultivation at 37° C.)
12.5 µg/mL: MIC against P. mirabilis (Proteus mirabilis; Proteus mirabilis, 5×10^5 CFU/mL, 10 h cultivation at 37° C.) | MIC against C. diversus (Citrobacter diversus; Citrobacter diversus, 5×10^5 CFU/mL, 10 h cultivation at 37° C.) | MIC against K. pneumonia (Klebsiella pneumonia; Klebsiella pneumonia, 5×10^5 CFU/mL, 10 h cultivation at 37° C.)

PRT1150 (HVPWCAHHLCRNNGTCISDNENLFCECPRLYSGK; listed as Homo sapiens)
50 µg/mL: MIC P. vulgaris (Proteus vulgaris; [1]) | MIC K. pneumonia (Klebsiella pneumonia; [1]) | MIC A. hydrophila (Aeromonas hydrophila; [1]) | MIC E. coli BL21 (E. coli BL21; [1])
25 µg/mL: MIC P. mirabilis (Proteus mirabilis; [1]) | MIC C. diversus (Citrobacter diversus; [1]) | MIC S. marcescens (Serratia marcescens; [1])
12.5 µg/mL: MIC E. cloacae (Enterobacter cloacae; [1]) | MIC (E. coli DH5α) | MIC P. aeruginosa (Pseudomonas aeruginosa; [1]) | MIC M. catarrhalis (Moraxella catarrhalis; [1])

PRT110 (DIDECASSNGTLCAHICINTLGSYRCECREGYIREDDGKTCT; listed as Homo sapiens)
12.5 µg/mL: MIC (μg/mL) P. vulgaris (Proteus vulgaris; Proteus vulgaris, 96-well plate, 5×10^5 CFU/mL, 37° C., 10 h) | MIC (μg/mL) P. mirabilis (Proteus mirabilis; Proteus mirabilis, 96-well plate, 5×10^5 CFU/mL, 37° C., 10 h) | MIC (μg/mL) C. diversus (Citrobacter diversus; Citrobacter diversus, 96-well plate, 5×10^5 CFU/mL, 37° C., 10 h) | MIC (μg/mL) S. marcescens (Serratia marcescens; Serratia marcescens, 96-well plate, 5×10^5 CFU/mL, 37° C., 10 h) | MIC (μg/mL) E. cloacae (Enterobacter cloacae; Enterobacter cloacae, 96-well plate, 5×10^5 CFU/mL, 37° C., 10 h) | MIC (μg/mL) E. coli BL21 (E. coli BL21; E. coli BL21, 96-well plate, 5×10^5 CFU/mL, 37° C., 10 h)
25 µg/mL: MIC (E. coli DH5α) | MIC (μg/mL) P. aeruginosa (Pseudomonas aeruginosa; Pseudomonas aeruginosa, 96-well plate, 5×10^5 CFU/mL, 37° C., 10 h)
50 µg/mL: MIC (μg/mL) K. pneumonia (Klebsiella pneumonia; Klebsiella pneumonia, 96-well plate, 5×10^5 CFU/mL, 37° C., 10 h) | MIC (μg/mL) A. hydrophila (Aeromonas hydrophila; Aeromonas hydrophila, 96-well plate, 5×10^5 CFU/mL, 37° C., 10 h) | MIC (μg/mL) M. catarrhalis (Moraxella catarrhalis; Moraxella catarrhalis, 96-well plate, 5×10^5 CFU/mL, 37° C., 10 h)

PRT493 (CDCPHTQNTCDPETGECVCPPHTQGVKCEECEDGHWGYDAEVGCQA; listed as Homo sapiens)
25 µg/mL: MIC against P. mirabilis (Proteus mirabilis; [2]) | MIC against C. diversus (Citrobacter diversus; [2]) | MIC against S. marcescens (Serratia marcescens; [2]) | MIC against E. cloacae (Enterobacter cloacae; [2])
12.5 µg/mL: MIC against P. vulgaris (Proteus vulgaris; [2]) | MIC against A. hydrophila (Aeromonas hydrophila; [2]) | MIC (E. coli DH5α) | MIC against P. aeruginosa (Pseudomonas aeruginosa; [2])
50 µg/mL: MIC against K. pneumonia (Klebsiella pneumonia; [2]) | MIC against E. coli BL21 (E. coli BL21; [2]) | MIC against M. catarrhalis (Moraxella catarrhalis; [2])
